Paper PMC6944674, “Comparison of the Hepatotoxic Potential of Two Treatments for Autosomal-Dominant Polycystic Kidney DiseaseUsing Quantitative Systems Toxicology Modeling” (Pharmaceutical Research, 2020)

How the values were obtained:
[1] = target: T1, human MRP4 (Homo sapiens, UniProt O15439); test: MRP4 vesicular transport inhibition assay (E217βG, HEK-293 cell membrane vesicles); format: biochemical
T1 construct: host or cells: HEK-293 cell membrane vesicles
T1 sequence (O15439 1-1325): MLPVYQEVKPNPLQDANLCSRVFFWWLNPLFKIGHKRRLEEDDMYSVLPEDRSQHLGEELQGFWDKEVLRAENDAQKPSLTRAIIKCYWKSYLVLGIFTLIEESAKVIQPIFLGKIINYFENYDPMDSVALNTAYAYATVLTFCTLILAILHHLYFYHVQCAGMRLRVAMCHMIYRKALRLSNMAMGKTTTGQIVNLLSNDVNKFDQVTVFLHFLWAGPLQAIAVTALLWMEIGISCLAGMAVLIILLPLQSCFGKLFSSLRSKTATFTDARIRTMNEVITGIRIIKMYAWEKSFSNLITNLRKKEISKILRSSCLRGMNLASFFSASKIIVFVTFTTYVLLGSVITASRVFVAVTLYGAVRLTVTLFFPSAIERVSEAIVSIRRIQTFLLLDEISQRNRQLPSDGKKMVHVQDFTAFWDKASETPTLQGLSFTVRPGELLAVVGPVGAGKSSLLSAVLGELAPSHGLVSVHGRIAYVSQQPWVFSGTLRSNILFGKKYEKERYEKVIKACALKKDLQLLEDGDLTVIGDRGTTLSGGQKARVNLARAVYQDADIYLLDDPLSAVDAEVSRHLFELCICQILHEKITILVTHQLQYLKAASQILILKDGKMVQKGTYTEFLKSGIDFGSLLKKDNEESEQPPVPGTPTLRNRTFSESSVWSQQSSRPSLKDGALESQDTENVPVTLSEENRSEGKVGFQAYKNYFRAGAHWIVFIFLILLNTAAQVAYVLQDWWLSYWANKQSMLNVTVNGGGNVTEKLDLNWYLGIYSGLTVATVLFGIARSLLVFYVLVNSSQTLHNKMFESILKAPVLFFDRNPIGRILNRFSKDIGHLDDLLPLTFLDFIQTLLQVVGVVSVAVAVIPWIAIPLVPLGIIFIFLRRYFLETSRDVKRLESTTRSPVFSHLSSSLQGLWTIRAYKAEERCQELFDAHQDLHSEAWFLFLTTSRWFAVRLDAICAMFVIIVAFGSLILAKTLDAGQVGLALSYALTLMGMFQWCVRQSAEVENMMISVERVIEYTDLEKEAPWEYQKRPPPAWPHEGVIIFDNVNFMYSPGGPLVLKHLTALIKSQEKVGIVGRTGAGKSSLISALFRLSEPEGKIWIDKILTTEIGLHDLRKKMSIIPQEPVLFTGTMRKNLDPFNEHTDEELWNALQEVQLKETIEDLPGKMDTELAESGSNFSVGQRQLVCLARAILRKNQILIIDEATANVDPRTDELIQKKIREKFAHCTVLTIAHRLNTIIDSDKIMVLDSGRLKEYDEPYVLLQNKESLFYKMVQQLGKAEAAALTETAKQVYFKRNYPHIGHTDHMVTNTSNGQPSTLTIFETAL
Procedure: (§1) The functional impact of lixivaptan, its three metabolites and tolvaptan on the human ABC (efflux) transporters BSEP and MRP3 and MRP4 was assessed for this project using in vitro vesicular transport inhibition assays. The inhibition of the human SLC (uptake) transporter NTCP was assessed using CHO cells stably expressing human NTCP. The concentration ranges used for the five test articles was determined based on the solubility of each compound in the assay solution. All transporter inhibition assays were conducted in triplicate by Solvo Biotechnology (Szeged, Hungary).
Figure B2. […] See Appendix A for more details.

[2] = target: T2, MRP3 and MRP4 (basolateral transport) (Homo sapiens, UniProt O15439); test: Basolateral inhibition constant: lowest IC50 of the MRP3 and MRP4 vesicular assays; format: biochemical; settings: membrane vesicles (vesicular transport assay), lowest IC50 of the experimentally derived MRP3 and MRP4 IC50 values
T2 sequence (O15439 1-1325): T1 sequence (O15439 1-1325)
Procedure: as §1, with “Hungary). For the simulation of bile acid transporter inhibition by lixivaptan in […], parameter values were selected for BSEP canalicular transport, basolateral transport (encompassing both MRP3 and MRP4), and NTCP transport. The parameter values for each include the inhibition constant, defined as the IC50 or Ki value, and the inhibition type, defined as competitive, non-competitive, or mixed inhibition.” for “Hungary).”

[3] = tested on: HepG2 cells; test: Seahorse XFe96 cellular respiration assay (oxygen consumption rate); format: cell-based; settings: 24 hour incubation
Procedure: To assess the potential effect of the five test articles on mitochondrial function, cellular respiration assays using a Seahorse XFe96 Flux Analyzer were conducted by Cyprotex (Macclesfield, UK) and overseen by the authors. HepG2 cells were incubated with each test article for 1 or 24 hours and tested for an effect on cellular respiration by measuring the oxygen consumption rate (OCR). Each study was conducted in triplicate. Importantly, the 1 hour culture was conducted in the absence of serum (i.e. no serum protein binding) as is standard for the Seahorse Analyzer assay conditions.

[4] = set-up: method as in proprietary data not shown; settings: rat tissue distribution study; ref proprietary data not shown; cited from earlier work

Structure (SMILES): Cc1ccc(F)cc1C(=O)Nc1ccc(C(=O)N2Cc3cccn3Cc3ccccc32)c(Cl)c1 [Lixivaptan, lixivaptan]
- inhibition of MRP4-mediated probe substrate accumulation [1]: inhibited
- IC50 [2]: 70 µM
- effect on HepG2 oxygen consumption rate (mitochondrial respiration) [3]: reduce the HepG2 oxygen consumption rate (OCR) in a dose-dependent manner
- measured liver-to-plasma ratio [4]: 17
